Measured values: patent US20210215694A1, “FILM OF CHITOSAN AND A DEVICE COMPRISING THE SAME DEPOSITED ON A SUBSTRATE AND USES THEREOF” (priority 2018, published 2021)
Where two headings read alike, the source gives them in different places.

Key:
[1] = tested on: UTI227; conditions: for Outcome: UTI227
Procedure: CMI determination. Different channels were prepared simultaneously with the same cell suspension. Antibiotic was prepared at different concentrations (one channel contained only LB as a control) and added to channel just before image acquisition: each channel contain a different antibiotic concentration. A picture was taken every 2 or 3 minutes in each channel. At the end of the acquisition we determined if concentrations tested induced cell death or not.
(§1) Minimum inhibitory concentration. Several experiments were performed with different ETP concentrations added to UTI 227 cells.

[2] = tested on: UTI227; test: CMI by Vitek; type: cell-based, Escherichia coli
Procedure: as §1

[3] = tested on: UTI 687; test: Antibiotic susceptibility from blood culture on chitosan χ1; type: cell-based, Escherichia coli; conditions: UTI 687 grown in blood culture vial
Procedure: Antibiotic susceptibility from blood culture. UTI 687 was cultivated in LB medium and then diluted to obtain a cell concentration close to the one find in blood during septicemia (final concentration: 5 CFU/ml). The suspension was then inoculated in culture vial for blood culture. After over-night culture (agitation, 37° C.), culture suspension was diluted in LB media for a final OD=0.01. Cells are then prepared as describe in material and method to determine cell susceptibility to ETP.
Antibiotic susceptibility from blood culture. […] These debris probably originate from blood culture media. However, it was possible to determine a CMI: CMIχ1≤1, which is coherent with the expected values.

[4] = tested on: UTI 227; test: Dose-dependent answer: time for cell death; type: cell-based, Escherichia coli; conditions: different concentrations
Procedure: (§2) Dose-dependent answer. Ertapenem (ETP) is an antibiotic used in the medical field in order to determine MIC. ETP was tested at different concentrations on UTI 227 and for each cell observed, the time for cell death was quantified (FIGS. 7B and 7C). […] Similarly, UTI 687 was contacted with different concentration of mecillinam (MEC), and the cell width was quantified.

[5] = tested on: UTI 687 cells; test: Cell death detection with propidium iodide stain on chitosan χ1; type: cell-based, Escherichia coli; conditions: 3 mg/L, 50 μL/mL of PI
Procedure: Following the protocol described in material and methods, UTI 687 cells were contacted with chitosan χ1 surface. Before acquisition, channel was rinsed with LB supplemented with 3 mg/L of ETP and 50 μL/mL of PI (FIG. 11B).

[6] = tested on: K12; test: Visualization of antibiotics susceptibility; type: cell-based, Escherichia coli
Procedure: Visualization of antibiotics susceptibility. Two channels were prepared with K12, identically. Before starting picture acquisition, one channel was rinsed with LB media, the other one with LB media supplemented with 100 μg/ml of ampicillin. […] Morphological changes were observed earlier than 1 hour and cell death imaged by lysis occurred right after 2 hours of incubation.

[7] = tested on: UTI698; test: CMI (MIC) determination on chitosan χ1 channels; type: cell-based, Escherichia coli
From the text: (§3) For each conditions, a similar result was obtained.

[8] = tested on: UTI704; test: CMI (MIC) determination on chitosan χ1 channels; type: cell-based, Escherichia coli
From the text: as §3

[9] = tested on: UTI698; test: CMI by Vitek; type: cell-based, Escherichia coli
From the text: as §3

[10] = tested on: UTI704; test: CMI by Vitek; type: cell-based, Escherichia coli
From the text: as §3

[11] = tested on: UTI 687; test: Dose-dependent answer: cell width; type: cell-based, Escherichia coli; conditions: 2 mg/L, after 1 hour of contact
Procedure: as §2

[12] = tested on: K12 cells; conditions: K12 on commercial chitosan; 50 μL/mL PI; after 30 seconds
Procedure: Propidium iodide (PI) is used as a DNA stain which cannot cross the membrane of live cells, making it useful to differentiate dead, dying and healthy cells. K12 cells were immobilized to commercial chitosan on microfluidic chamber (channels in PDMS) in presence or absence of EtOH 70%. Channels were rinsed with LB, 50 μL/mL PI.

[13] = tested on: UTI687; test: CMI (MIC) determination on chitosan χ1 channels; type: cell-based, Escherichia coli
From the text: as §3

[14] = tested on: UTI687; test: CMI by Vitek; type: cell-based, Escherichia coli
From the text: as §3

[15] = concentration 1 (head mg/ml, title mg/L)
[16] = concentration 2 (head mg/ml, title mg/L)
[17] = concentration 0.25 (head mg/ml, title mg/L)
[18] = concentration 0.5 (head mg/ml, title mg/L)

C[C@@H](O)[C@H]1C(=O)N2C(C(=O)O)=C(S[C@@H]3CN[C@H](C(=O)Nc4cccc(C(=O)O)c4)C3)[C@H](C)[C@H]12 [Ertapenem]
Concentration above which a cytotoxic effect was observed [1]: above 0.01 mg/L | Outcome ([1]; concentration 0.01 (mg/L)): Growth | Outcome ([1]; concentration 0.05 (mg/L)): Death | Outcome ([1]; concentration 0.1 (mg/L)): Death | Outcome ([1]; concentration 0.125 (mg/L)): Death | Outcome ([1]; concentration 0.25 (mg/L)): Death | Outcome ([1]; concentration 0.5 (mg/L)): Death | Outcome ([1]; concentration 0.75 (mg/L)): Death | CMI (Vitek) [2]: ≤0.5 mg/L | CMI (Vitek) ([2]; listed as ETP): ≤ 0.5 mg/L | CMIχ1 [3]: ≤ 1 | Time for cell death according to concentration [4]: significantly faster for a higher concentration | Propidium iodide staining of cells [5]: some cells turned in red

CC1(C)S[C@@H]2[C@H](NC(=O)[C@H](N)c3ccccc3)C(=O)N2[C@H]1C(=O)O [ampicillin]
Time at which morphological changes were observed ([6]; 100 μg/ml): < 1 hour | Time of cell death imaged by lysis ([6]; 100 μg/ml, incubation): ~2 h | Effect on cells (in words) ([6]; LB supplemented with 100 μg/ml): cells extended but did not divide

CC1(C)S[C@@H]2[C@H](/N=C/N3CCCCCC3)C(=O)N2[C@H]1C(=O)O [Mecillinam, mecillinam]
Outcome ([1]; concentration 4 (mg/L)): Growth | Outcome ([1]; concentration 8 (mg/L)): Death | Outcome ([1]; concentration 12 (mg/L)): Death | Outcome ([1]; concentration 16 (mg/L)): Death | CMI (measured) ([7]; chitosan χ1): ≤1 mg/L | Outcome [7, 15]: Death | Outcome [7, 16]: Death | Outcome ([7]; concentration 5 (head mg/ml, title mg/L)): Death | CMI (measured) ([8]; chitosan χ1): ≤2 mg/L | Outcome [8, 17]: Growth | Outcome [8, 18]: Growth | Outcome [8, 15]: Growth | Outcome [8, 16]: Death | CMI (Vitek) [2]: 8 mg/L | CMI (Vitek) [9]: ≤1 mg/L | CMI (Vitek) [10]: 2 mg/L | Cell width [11]: An augmentation was observed

CCO [EtOH 70%, EtOH]
Propidium iodide fluorescence of cells [12]: all the cells incubated with EtOH were fluorescent

CC1COc2c(N3CCN(C)CC3)c(F)cc3c(=O)c(C(=O)O)cn1c23 (stereo not shown) [Ofloxacin, ofloxacin]
CMI (measured) ([13]; chitosan χ1): ≤0.25 mg/L | Outcome [13, 17]: Death | Outcome [13, 18]: Death | Outcome [13, 15]: Death | Outcome [13, 16]: Death | CMI (Vitek) [14]: 0.5 mg/L
